Data published in patent EP1655284A1, “2-Phenylsulfopyrroles” (Aponetics AG, priority 2004, dated 2006).
Blank lines part the entries; values can stand above or below the compound they belong to.

Legend:
[1] = system: PBL; assay: Hoechst 33342 nuclear staining; format: cell-based; set-up: key: 0: no activity; 1: weak activity comprising less than 50% of the cells; 2: strong activity comprising more than 50% of the cells; settings: 48 hour read-out
Description: (§1) This assay is performed in 96 well tissue culture plates. Appropriate number of cells (adherent cells: 3 - 5*10^3, suspension cells: 8 - 10*10^3) are being seeded out in 80 µl complete medium. Adherent cells are incubated for 24 h for proper spreading out before addition of test compounds while suspension cells are immediately treated with test compounds after seeding out. The test compounds are added in 20 µl complete medium containing max 5% DMSO. […] After 24 h or 48 h incubation at culture conditions, 10 µl medium containing Hoechst 33342 dye (Sigma B-2261) at 2-5 µg/ml are added to each well. The assay plates are then further incubated for 30 minutes and subsequently analyzed with a standard inverted fluorescence microscope.
(§2) The readout allows the determination of the fraction of apoptotic nuclei as well as other morphological criteria specific for apoptosis as a function of the treatment. Table 2: Hoechst 33342 nuclear staining (48 hour read-out)

[2] = system: Jily; assay: Hoechst 33342 nuclear staining; format: cell-based; set-up: key: 0: no activity; 1: weak activity comprising less than 50% of the cells; 2: strong activity comprising more than 50% of the cells; settings: 48 hour read-out
Description: as §1, §2

[3] = system: H460; assay: Hoechst 33342 nuclear staining; format: cell-based, human; set-up: key: 0: no activity; 1: weak activity comprising less than 50% of the cells; 2: strong activity comprising more than 50% of the cells; settings: 48 hour read-out
Description: as §1, §2

[4] = system: HeLa; assay: Hoechst 33342 nuclear staining; format: cell-based, human; set-up: key: 0: no activity; 1: weak activity comprising less than 50% of the cells; 2: strong activity comprising more than 50% of the cells; settings: 48 hour read-out
Description: as §1, §2

[5] = system: Jurkat; assay: Hoechst 33342 nuclear staining; format: cell-based, human; set-up: key: 0: no activity; 1: weak activity comprising less than 50% of the cells; 2: strong activity comprising more than 50% of the cells; settings: 48 hour read-out
Description: as §1, §2

[6] = system: H460; assay: MTS proliferation assay; format: cell-based; settings: Homo sapiens, NCI-H460; H460, 72 h incubation
Description: (§3) The assay is performed in 96 well tissue culture plates. The cells (range : 1.5*10^3 - 10^4) are seeded out in 80 µl complete medium 24 h prior to compound treatment. The test compounds are added in 20 µl complete medium containing max 5% DMSO. The final compound concentrations in the assays are 10 µM, 3 µM, 1 µM and 0.3 µM, respectively. The assay plates are incubated for 72 h at culture conditions. The MTS reagent is prepared according to the manufacturer's protocol (Promega G1111). 20 µl MTS reagent are added to each well, the assay plates are quickly spun and incubated for another 3 h at culture conditions. Subsequently, the plates are shortly shaked and absorption measured with a microplate-reader at 492 nm. Table 3: MTS proliferation assay

[7] = system: MRC5; assay: MTS proliferation assay; format: cell-based; settings: Homo sapiens; MRC5, 72 h incubation
Description: as §3

[8] = system: HeLa; assay: MTS proliferation assay; format: cell-based; settings: Homo sapiens, 72 h incubation
Description: as §3

[9] = system: Jily; assay: MTS proliferation assay; format: cell-based; settings: 72 h incubation
Description: as §3

[10] = system: Jurkat; assay: MTS proliferation assay; format: cell-based; settings: Homo sapiens, 72 h incubation
Description: as §3

IC50 [6]: 100 to 1000 nM | IC50 [8]: 100 to 1000 nM | IC50 [10]: < 100 nM
SMILES: COc1ccc(S(=O)(=O)n2cc(Br)cc2-c2cc(OC)c(OC)c(OC)c2)cc1 [Example 1, 4-Bromo-1-p-methoxyphenylsulfonyl-2-(3,4,5-trimethoxyphenyl)-pyrrole]
Hoechst 33342 nuclear staining score (fraction of apoptotic nuclei) ([1]; 0.01µM): 0 | Hoechst 33342 nuclear staining score (fraction of apoptotic nuclei) ([1]; 0.1µM): 0 | Hoechst 33342 nuclear staining score (fraction of apoptotic nuclei) ([1]; 1µM): 0 | Hoechst 33342 nuclear staining score (fraction of apoptotic nuclei) ([2]; 0.01µM): 0 | Hoechst 33342 nuclear staining score (fraction of apoptotic nuclei) ([2]; 0.1µM): 2 (strong activity comprising more than 50% of the cells.) | Hoechst 33342 nuclear staining score (fraction of apoptotic nuclei) ([2]; 1µM): 2 (strong activity comprising more than 50% of the cells.) | Hoechst 33342 nuclear staining score (fraction of apoptotic nuclei) ([3]; H460, 0.01µM): 0 | Hoechst 33342 nuclear staining score (fraction of apoptotic nuclei) ([3]; H460, 0.1µM): 2 (strong activity comprising more than 50% of the cells.) | Hoechst 33342 nuclear staining score (fraction of apoptotic nuclei) ([3]; H460, 1µM): 2 (strong activity comprising more than 50% of the cells.) | Hoechst 33342 nuclear staining score (fraction of apoptotic nuclei) ([4]; 0.01µM): 0 | Hoechst 33342 nuclear staining score (fraction of apoptotic nuclei) ([4]; 0.1µM): 0 | Hoechst 33342 nuclear staining score (fraction of apoptotic nuclei) ([4]; 1µM): 2 (strong activity comprising more than 50% of the cells.) | Hoechst 33342 nuclear staining score (fraction of apoptotic nuclei) ([5]; 0.01µM): 0 | Hoechst 33342 nuclear staining score (fraction of apoptotic nuclei) ([5]; 0.1µM): 2 (strong activity comprising more than 50% of the cells.) | Hoechst 33342 nuclear staining score (fraction of apoptotic nuclei) ([5]; 1µM): 2 (strong activity comprising more than 50% of the cells.) | IC50 [7]: 100 to 1000 nM | IC50 [9]: 100 to 1000 nM

IC50 [6]: < 100 nM | IC50 [8]: 100 to 1000 nM | IC50 [10]: < 100 nM
SMILES: COc1ccc(S(=O)(=O)n2cccc2-c2cc(OC)c(OC)c(OC)c2)cc1 [Example 2, 1-p-methoxyphenylsulfonyl-2-(3,4,5-trimethoxyphenyl)-pyrrole]
Hoechst 33342 nuclear staining score (fraction of apoptotic nuclei) ([1]; 0.01µM): 0 | Hoechst 33342 nuclear staining score (fraction of apoptotic nuclei) ([1]; 0.1µM): 0 | Hoechst 33342 nuclear staining score (fraction of apoptotic nuclei) ([1]; 1µM): 0 | Hoechst 33342 nuclear staining score (fraction of apoptotic nuclei) ([2]; 0.01µM): 0 | Hoechst 33342 nuclear staining score (fraction of apoptotic nuclei) ([2]; 0.1µM): 2 (strong activity comprising more than 50% of the cells.) | Hoechst 33342 nuclear staining score (fraction of apoptotic nuclei) ([2]; 1µM): 2 (strong activity comprising more than 50% of the cells.) | Hoechst 33342 nuclear staining score (fraction of apoptotic nuclei) ([3]; H460, 0.01µM): 0 | Hoechst 33342 nuclear staining score (fraction of apoptotic nuclei) ([3]; H460, 0.1µM): 2 (strong activity comprising more than 50% of the cells.) | Hoechst 33342 nuclear staining score (fraction of apoptotic nuclei) ([3]; H460, 1µM): 2 (strong activity comprising more than 50% of the cells.) | Hoechst 33342 nuclear staining score (fraction of apoptotic nuclei) ([4]; 0.01µM): 0 | Hoechst 33342 nuclear staining score (fraction of apoptotic nuclei) ([4]; 0.1µM): 2 (strong activity comprising more than 50% of the cells.) | Hoechst 33342 nuclear staining score (fraction of apoptotic nuclei) ([4]; 1µM): 2 (strong activity comprising more than 50% of the cells.) | Hoechst 33342 nuclear staining score (fraction of apoptotic nuclei) ([5]; 0.01µM): 0 | Hoechst 33342 nuclear staining score (fraction of apoptotic nuclei) ([5]; 0.1µM): 2 (strong activity comprising more than 50% of the cells.) | Hoechst 33342 nuclear staining score (fraction of apoptotic nuclei) ([5]; 1µM): 2 (strong activity comprising more than 50% of the cells.) | IC50 [7]: < 100 nM | IC50 [9]: < 100 nM

IC50 [6]: < 100 nM | IC50 [8]: < 100 nM | IC50 [10]: < 100 nM
SMILES: COc1ccc(S(=O)(=O)n2cc(C(=O)Nc3ccc(N4CCOCC4)cc3)cc2-c2cc(OC)c(OC)c(OC)c2)cc1 [Example 3, N-p-morpholinophenyl-1-p-methoxyphenylsulfonyl-2-(3,4,5-trimethoxyphenyl)-Pyrrole-4-carboxamide]
Hoechst 33342 nuclear staining score (fraction of apoptotic nuclei) ([1]; 0.01µM): 0 | Hoechst 33342 nuclear staining score (fraction of apoptotic nuclei) ([1]; 0.1µM): 0 | Hoechst 33342 nuclear staining score (fraction of apoptotic nuclei) ([1]; 1µM): 0 | Hoechst 33342 nuclear staining score (fraction of apoptotic nuclei) ([2]; 0.01µM): 2 (strong activity comprising more than 50% of the cells.) | Hoechst 33342 nuclear staining score (fraction of apoptotic nuclei) ([2]; 0.1µM): 2 (strong activity comprising more than 50% of the cells.) | Hoechst 33342 nuclear staining score (fraction of apoptotic nuclei) ([2]; 1µM): 2 (strong activity comprising more than 50% of the cells.) | Hoechst 33342 nuclear staining score (fraction of apoptotic nuclei) ([3]; H460, 0.01µM): 0 | Hoechst 33342 nuclear staining score (fraction of apoptotic nuclei) ([3]; H460, 0.1µM): 2 (strong activity comprising more than 50% of the cells.) | Hoechst 33342 nuclear staining score (fraction of apoptotic nuclei) ([3]; H460, 1µM): 2 (strong activity comprising more than 50% of the cells.) | Hoechst 33342 nuclear staining score (fraction of apoptotic nuclei) ([4]; 0.01µM): 0 | Hoechst 33342 nuclear staining score (fraction of apoptotic nuclei) ([4]; 0.1µM): 2 (strong activity comprising more than 50% of the cells.) | Hoechst 33342 nuclear staining score (fraction of apoptotic nuclei) ([4]; 1µM): 2 (strong activity comprising more than 50% of the cells.) | Hoechst 33342 nuclear staining score (fraction of apoptotic nuclei) ([5]; 0.01µM): 2 (strong activity comprising more than 50% of the cells.) | Hoechst 33342 nuclear staining score (fraction of apoptotic nuclei) ([5]; 0.1µM): 2 (strong activity comprising more than 50% of the cells.) | Hoechst 33342 nuclear staining score (fraction of apoptotic nuclei) ([5]; 1µM): 2 (strong activity comprising more than 50% of the cells.) | IC50 [7]: < 100 nM | IC50 [9]: < 100 nM
